In patent US20240376056A1, “PHENYL ACETAMIDE BASED IL-17A MODULATORS AND USES THEREOF” (DiCE Alpha, Inc., priority 2021, published 2024):

biological target: T1, IL-17A/A (Homo sapiens, UniProt Q16552); assay: HEK-Blue IL-17A/A inhibition assay (SEAP reporter); assay type: cell-based; conditions: HEK-Blue cells (HEK 293 expressing IL-17RA, IL-17RC, Act1); IL-17A/A stimulation; 20 hours; SEAP read at A630; 4-parameter fit
T1 construct: purchased Genscript Z03228
T1 sequence (Q16552 24-155): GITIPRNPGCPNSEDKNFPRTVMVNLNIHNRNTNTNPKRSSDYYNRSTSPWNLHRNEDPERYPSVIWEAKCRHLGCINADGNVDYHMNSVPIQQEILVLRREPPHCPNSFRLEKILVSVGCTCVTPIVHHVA
Procedure, shortened: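 HEK 293 cells engineered with IL-17RA, IL-17RC and Act1 (NFκB-driven SEAP) given titrated compound (top final 10, 1 or 0.3 uM; 0.1% DMSO) just before IL-17A/A, then incubated 20 h. SEAP in media developed with Quanti-Blue, read at A630; IC50 by 4-parameter nonlinear fit.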

| SMILES | IC50 [nM] |
| --- | --- |
| CCC(C(=O)NCC(F)(F)F)c1ccc(NC(=O)[C@@H](NC(=O)c2ccnn2C(C)C)C(C2CC2)C2CC2)c(F)c1 (single isomer, unassigned) [Compound 149] | 100 to 1000 |
| CCn1nccc1C(=O)N[C@H](C(=O)Nc1cc(C)c(C(C)C(=O)NCC(F)(F)F)cc1F)C(C1CC1)C1CC1 (stereo partly shown) [Compound 236] | < 100 |
| CC(C)n1nccc1C(=O)N[C@H](C(=O)Nc1ccc([C@H](C)C(=O)NCc2ccccc2C(F)(F)F)cc1F)C(C1CC1)C1CC1 [Compound 36, N-((S)-1.1-dicyclopropyl-3-((2-fluoro-4-((S)-1-oxo-1-((2-(trifluoromethyl)benzyl)amino)propan-2-yl)phenyl)amino)-3-oxopropan-2-yl)-1-isopropyl-1H-pyrazole-5-carboxamide] | > 1000 |
| COC(=O)C(NC(=O)[C@@H](C)c1ccc(NC(=O)[C@@H](NC(=O)c2ccnn2C(C)C)C(C2CC2)C2CC2)c(F)c1)C(F)(F)F (stereo partly shown) [Compound 62] | 100 to 1000 |
| C[C@H](C(=O)NCC(F)(F)F)c1ccc(NC(=O)[C@@H](NC(=O)c2ccnn2CCN2CCOCC2)C(C2CC2)C2CC2)c(F)c1 [Compound 89, N-((S)-1,1-dicyclopropyl-3-((2-fluoro-4-((S)-1-oxo-1-((2,2,2-trifluoroethyl)amino)propan-2-yl)phenyl)amino)-3-oxopropan-2-yl)-1-(2-morpholinoethyl)-1H-pyrazole-5-carboxamide] | 100 to 1000 |
| CCOC(=O)CC(NC(=O)[C@@H](C)c1ccc(NC(=O)[C@@H](NC(=O)c2ccnn2C(C)C)C(C2CC2)C2CC2)c(F)c1)C(F)(F)F (stereo partly drawn) [Compound 61, ethyl 3-((S)-2-(4-((S)-3,3-dicyclopropyl-2-(1-isopropyl-1H-pyrazole-5-carboxamido)propanamido)-3-fluorophenyl)propanamido)-4,4,4-trifluorobutanoate] | < 100 |
| CC(C)n1nccc1C(=O)N[C@H](C(=O)Nc1ccc([C@H](C)C(=O)N2CC(O)CC2C(F)(F)F)cc1F)C(C1CC1)C1CC1 (single isomer, unassigned) [Compound 144] | > 1000 |
| C[C@H](C(=O)NCC(F)(F)F)c1ccc(NC(=O)[C@@H](NC(=O)c2ccnn2C2CCCNC2)C(C2CC2)C2CC2)c(F)c1 (single isomer, unassigned) [Compound 96] | > 1000 |
| COc1cc(NC(=O)[C@@H](NC(=O)c2ccnn2C(C)C)C(C2CC2)C2CC2)c(F)cc1C(C)C(=O)N(C)CC(F)(F)F (stereo partly shown) [Compound 176] | < 100 |
| CCn1nccc1C(=O)N[C@H](C(=O)Nc1ccc(CC(=O)NCC(F)(F)F)cc1F)C1CCCCCC1 [Compound 2, (S)-N-(1-cycloheptyl-2-((2-fluoro-4-(2-oxo-2-((2,2,2-trifluoroethyl)amino)ethyl)phenyl)amino)-2-oxoethyl)-1-ethyl-1H-pyrazole-5-carboxamide] | 100 to 1000 |
| Cc1cc(NC(=O)[C@@H](NC(=O)c2ccnn2C(C)C)C(C2CC2)C2CC2)c(F)cc1C(C)C(=O)N1CC(O)CC1C(F)(F)F (single isomer, unassigned) [Compound 199] | < 100 |
| CNc1cc(NC(=O)[C@@H](NC(=O)c2ccnn2C(C)C)C(C2CC2)C2CC2)c(F)cc1C(C)C(=O)NCC(F)(F)F (single isomer, unassigned) [Compound 164] | < 100 |
| CC(C)n1nccc1C(=O)N[C@H](C(=O)Nc1ccc([C@H](C)C(=O)NC2(C(F)(F)F)CN(C(=O)OC(C)(C)C)C2)cc1F)C(C1CC1)C1CC1 [Compound 46, tert-butyl 3-((S)-2-(4-((S)-3,3-dicyclopropyl-2-(1-isopropyl-1H-pyrazole-5-carboxamido)propanamido)-3-fluorophenyl)propanamido)-3-(trifluoromethyl)azetidine-1-carboxylate] | > 1000 |
| CC(C(=O)N(C)CC(F)(F)F)c1cc(F)c(NC(=O)[C@@H](NC(=O)c2ccnn2C(C)C)C(C2CC2)C2CC2)cc1N(C)C (stereo partly shown) [Compound 233] | > 1000 |
| CCn1nccc1C(=O)N[C@H](C(=O)Nc1ccc([C@H](C)C(=O)N2CCC[C@@H]2C(F)(F)F)cc1F)C(C1CC1)C1CC1 [Compound 9, N-((S)-1,1-dicyclopropyl-3-((2-fluoro-4-((S)-1-oxo-1-((R)-2-(trifluoromethyl)pyrrolidin-1-yl)propan-2-yl)phenyl)amino)-3-oxopropan-2-yl)-1-ethyl-1H-pyrazole-5-carboxamide] | > 1000 |

Further lines, results first:

| IC50 [nM] | SMILES |
| --- | --- |
| < 100 | CC(C)n1nccc1C(=O)N[C@H](C(=O)Nc1ccc([C@H](C)C(=O)N2CC(F)CC2C(F)(F)F)cc1F)C(C1CC1)C1CC1 (stereo partly drawn) [Compound 47, N-((2S)-1,1-dicyclopropyl-3-((2-fluoro-4-((2S)-1-(4-fluoro-2-(trifluoromethyl)pyrrolidin-1-yl)-1-oxopropan-2-yl)phenyl)amino)-3-oxopropan-2-yl)-1-isopropyl-1H-pyrazole-5-carboxamide] |
| > 1000 | Cc1cc(NC(=O)[C@@H](NC(=O)c2ccnn2C(C)C)C(C2CC2)C2CC2)c(F)cc1[C@@H](C)C(=O)NCC(F)(F)F (single isomer, unassigned) [Compound 99] |
| < 100 | CC(C(=O)NCC(F)(F)F)c1cc(F)c(NC(=O)[C@@H](NC(=O)c2ccnn2C(C)C)C(C2CC2)C2CC2)cc1C(F)(F)F (stereo partly shown) [Compound 169] |
| < 100 | CC(C(=O)NCC(F)(F)F)c1cc(F)c(NC(=O)[C@@H](NC(=O)c2ccnn2C(C)C)C(C2CC2)C2CC2)cc1C1CC1 (single isomer, unassigned) [Compound 127] |
| 100 to 1000 | CCn1nccc1C(=O)N[C@H](C(=O)Nc1cc(C)c(C(C)C(=O)N(C)CC(F)(F)F)cc1F)C(C1CC1)C1CC1 (single isomer, unassigned) [Compound 77] |
| < 100 | CCc1nocc1C(=O)N[C@H](C(=O)Nc1ccc([C@H](C)C(=O)N(C)CC(F)(F)F)cc1F)C(C1CC1)C1CC1 [Compound 80, N-((S)-1,1-dicyclopropyl-3-((2-fluoro-4-((S)-1-(methyl(2,2,2-trifluoroethyl)amino)-1-oxopropan-2-yl)phenyl)amino)-3-oxopropan-2-yl)-3-ethylisoxazole-4-carboxamide] |
| 100 to 1000 | CCn1ncc(F)c1C(=O)N[C@H](C(=O)Nc1ccc([C@H](C)C(=O)N(C)CC(F)(F)F)cc1F)C(C1CC1)C1CC1 [Compound 79, N-((S)-1,1-dicyclopropyl-3-((2-fluoro-4-((S)-1-(methyl(2,2,2-trifluoroethyl)amino)-1-oxopropan-2-yl)phenyl)amino)-3-oxopropan-2-yl)-1-ethyl-4-fluoro-1H-pyrazole-5-carboxamide] |
| > 1000 | CC(C)C(C(=O)NCC(F)(F)F)c1ccc(NC(=O)[C@@H](NC(=O)c2ccnn2C(C)C)C(C2CC2)C2CC2)c(F)c1 (single isomer, unassigned) [Compound 129] |
| > 1000 | CCn1nccc1C(=O)N[C@H](C(=O)Nc1cc(C(F)(F)F)c(C(C)C(=O)NC(CO)C(F)(F)F)cc1F)C(C1CC1)C1CC1 (single isomer, unassigned) [Compound 241] |
| 100 to 1000 | CCn1nccc1C(=O)N[C@H](C(=O)Nc1cc(C(F)(F)F)c(C(C)C(=O)N2CC(F)(F)C(F)(F)C2)cc1F)C(C1CC1)C1CC1 (stereo partly shown) [Compound 242] |
| 100 to 1000 | CC(C(=O)NCC(F)(F)F)c1cc(F)c(NC(=O)[C@@H](NC(=O)c2ccnn2C(C)C)C(C2CC2)C2CC2)cc1C#N (single isomer, unassigned) [Compound 115] |
| < 100 | CC(C)n1nccc1C(=O)N[C@H](C(=O)Nc1ccc([C@H](C)C(=O)NC(C2CCOC2)C(F)(F)F)cc1F)C(C1CC1)C1CC1 (stereo partly drawn) [Compound 67, N-[(1S)-1-(dicyclopropylmethyl)-2-[2-fluoro-4-[(1S)-1-methyl-2-oxo-2-[(2,2,2-trifluoro-1-tetrahydrofuran-3-yl-ethyl)amino]ethyl]anilino]-2-oxo-ethyl]-2-isopropyl-pyrazole-3-carboxamide] |
| < 100 | CCc1cc(NC(=O)[C@@H](NC(=O)c2ccnn2C(C)C)C(C2CC2)C2CC2)c(F)cc1[C@H](C)C(=O)NCC(F)(F)F [Compound 111, N-((S)-1,1-dicyclopropyl-3-((5-ethyl-2-fluoro-4-((S)-1-oxo-1-((2,2,2-trifluoroethyl)amino)propan-2-yl)phenyl)amino)-3-oxopropan-2-yl)-1-isopropyl-1H-pyrazole-5-carboxamide] |
| 100 to 1000 | CC(C(=O)NCC(F)(F)F)c1cc(F)c(NC(=O)[C@@H](NC(=O)c2ccnn2C(C)C)C(C2CC2)C2CC2)cc1C(N)=O (single isomer, unassigned) [Compound 117] |
| < 100 | CC(C)n1nccc1C(=O)N[C@H](C(=O)Nc1ccc([C@H](C)C(=O)N2C[C@@H](F)C[C@H]2C(F)(F)F)cc1F)C(C1CC1)C1CC1 [Compound 60, N-((S)-1,1-dicyclopropyl-3-((2-fluoro-4-((S)-1-((2S,4S)-4-fluoro-2-(trifluoromethyl)pyrrolidin-1-yl)-1-oxopropan-2-yl)phenyl)amino)-3-oxopropan-2-yl)-1-isopropyl-1H-pyrazole-5-carboxamide] |
| 100 to 1000 | CCC(C1CCC1)[C@H](NC(=O)c1ccnn1CC)C(=O)Nc1ccc([C@H](C)C(=O)NCC(F)(F)F)cc1F (single isomer, unassigned) [Compound 86] |
| < 100 | Cc1cc(NC(=O)[C@@H](NC(=O)c2ccnn2C(C)C)C(C2CC2)C2CC2)c(F)cc1C(C)C(=O)N(C)CC(F)(F)F (stereo partly shown) [Compound 208] |
| 100 to 1000 | CC(C)n1nccc1C(=O)N[C@H](C(=O)Nc1ccc([C@H](C)C(=O)N(C)CC(F)(F)F)cc1F)C1CCC(F)(F)CC1 [Compound 51, N-((S)-1-(4,4-difluorocyclohexyl)-2-((2-fluoro-4-((S)-1-(methyl(2,2,2-trifluoroethyl)amino)-1-oxopropan-2-yl)phenyl)amino)-2-oxoethyl)-1-isopropyl-1H-pyrazole-5-carboxamide] |
| < 100 | Cc1cc(NC(=O)[C@@H](NC(=O)c2ccnn2C)C(C2CC2)C2CC2)c(F)cc1C(C)C(=O)N(C)CC(F)(F)F (stereo partly shown) [Compound 223] |
